Source: patent US20260209180A1, “PROTEASE INHIBITORS FOR TREATING OR PREVENTING CORONAVIRUS INFECTION” (Merck Sharp & Dohme LLC, priority 2023, published 2026)

Molecular target: SARS2 coronavirus 3CL protease (Severe acute respiratory syndrome coronavirus 2, UniProt P0DTD1)
Assay: SARS2 Coronavirus 3CL Protease Assay (FRET)
Assay type: biochemical
Conditions: 5 nM protease pre-incubated with compound 30 minutes; 15 uM peptide substrate; 4 h room temperature; read-out: FRET Potency (nM); IC50 values in the SARS2 3CLPro FRET assay
Method: The enzymatic activity of SARS2 coronavirus 3CL protease was determined in a FRET (fluorescence resonance energy transfer)-based assay measuring the cleavage of a peptide substrate by recombinantly expressed and purified enzyme. Cleavage of the peptide SEQ ID NO: 1 (CPC Scientific) by SARS2 3CL protease was measured in reaction buffer (50 mM Hepes pH 7.5, 0.01% Triton X-100, 0.01% BSA, 2 mM DTT). […] Room temperature reactions (4 h) were quenched by addition of a high dose of inhibitor and read on an appropriate plate reader (excitation wavelength=495 nm, emission wavelength=520 nm). Data were analyzed by a standard 4 parameter fit to determine IC50 values.

CNC(=O)C(=O)[C@H](CCC(C)(F)F)NC(=O)c1cc(Cl)ccc1NC(=O)c1cncc(C#N)c1 [Example 51, N-[4-chloro-2-[[(1S)-4,4-difluoro-1-[2-(methylamino)-2-oxo-acetyl]pentyl]carbamoyl]phenyl]-5-cyano-pyridine-3-carboxamide]
IC50: 15.1 nM

CNC(=O)C(=O)[C@H](CCC(C)(F)F)NC(=O)c1cc(Cl)ccc1NC(=O)c1cccnc1 [Example 52]
IC50: 15.6 nM

CC(F)(F)CC[C@H](NC(=O)c1cc(Cl)ccc1NC(=O)CCC(F)(F)F)C(=O)C(N)=O [Example 53, 5-chloro-N-[(1S)-4,4-difluoro-1-oxamoyl-pentyl]-2-(4,4,4-trifluorobutanoylamino) benzamide]
IC50: 97.5 nM

CNC(=O)C(=O)[C@H](CCC(C)(F)F)NC(=O)c1cc(Cl)cnc1NC(=O)C1CC(F)(F)C1 [Example 54, 5-chloro-2-[(3,3-difluorocyclobutanecarbonyl)amino]-N-[(1S)-4,4-difluoro-1-[2-(methylamino)-2-oxo-acetyl]pentyl]pyridine-3-carboxamide]
IC50: 7.5 nM

CNC(=O)C(=O)[C@H](CCC(C)(F)F)NC(=O)c1cc(Cl)ncc1NC(=O)OC [Example 55, methyl N-[6-chloro-4-[[(1S)-4,4-difluoro-1-[2-(methylamino)-2-oxo-acetyl]pentyl]carbamoyl]-3-pyridyl]carbamate]
IC50: 93.8 nM

CNC(=O)C(=O)[C@H](CCC(C)(F)F)NC(=O)c1cc(Cl)cnc1NC(=O)OC [Example 56, methyl N-[5-chloro-3-[[(1S)-4,4-difluoro-1-[2-(methylamino)-2-oxo-acetyl]pentyl]carbamoyl]-2-pyridyl]carbamate]
IC50: 4.2 nM

CNC(=O)C(=O)[C@H](CCC(C)(F)F)NC(=O)c1cc(Cl)ccc1NC(=O)N(C)CC1CCC(F)(F)CC1 [Example 57, (S)-5-chloro-N-(6,6-difluoro-1-(methylamino)-1,2-dioxoheptan-3-yl)-2-(3-((4,4-difluorocyclohexyl)methyl)-3-methylureido)benzamide]
IC50: 6 nM

CNC(=O)C(=O)[C@H](CCC(C)(F)F)NC(=O)c1cc(Cl)ccc1NC(=O)C(C)C [Example 58, 5-chloro-N-[(1S)-4,4-difluoro-1-[2-(methylamino)-2-oxo-acetyl]pentyl]-2-(2-methylpropanoylamino) benzamide]
IC50: 6.2 nM

CNC(=O)C(=O)[C@H](CCC(C)(F)F)NC(=O)c1cc(Cl)ccc1NC(=O)OC1CC1 [Example 59, cyclopropyl N-[4-chloro-2-[[(1S)-4,4-difluoro-1-[2-(mcthylamino)-2-oxo-acetyl]pentyl]carbamoyl]phenyl]carbamate]
IC50: 13.1 nM

CNC(=O)C(=O)[C@H](CCC(C)(F)F)NC(=O)c1cc(Cl)ccc1NC(=O)[C@H](C)OC [Example 60, 5-chloro-N-[(1S)-4,4-difluoro-1-[2-(methylamino)-2-oxo-acetyl]pentyl]-2-[[(2S)-2-methoxypropanoyl]amino] benzamide]
IC50: 9.4 nM
